Laboratory results taken from patent US5942405A, “Therapeutic and screening methods using C3a receptor and C3a” (priority 1997, dated 1999).
“Also recorded” adds a separate entry of the source.

Tests used:
C5a-R = assay: Electrophysiological response (Ca2+ mediated chloride currents, two electrode voltage clamp) of Xenopus oocytes injected with C5a-R cRNA; assay type: cell-based, human; conditions: oocytes co-injected with C5a-R cRNA (10 ng) and U937 RNA (25 ng), ligands 10 nM
Procedure: (A) Electrophysiological response of Xenopus oocytes injected with cRNA for C3a Receptor (10 ng), total U937 RNA (25 ng), or a mixture of C3a Receptor (10 ng) and U937 RNA (25 ng) to 10 nM rC5a, 10 nM C3a analogue peptide, 10 nM platelet activating factor (PAF), 10 nM fMetLeuPhe. Inset, represents typical response of oocytes co-injected with C3a Receptor cRNA+U937 RNA to 10 nM C3a. (B) Electrophysiological response of oocytes injected with C5a-R cRNA (10 ng), U937 RNA (25 ng) or a mixture of C5a-R and U937 RNA, to 10 nM rC5a or 10 nM C3a analogue peptide. […] Calcium mobilization by Fura 2 loaded cells expressing C5a receptor (FIGS. 4A & 4C) or C3a Receptor (FIGS. 4B & 4D) in response to rC5a (10 nM, FIG. 4A or 100 nM, FIG. 4B) or C3a analogue peptide (1 uM, FIGS. 4C & 4D).
Commercially prepared (Clontech, Palo Alto, Calif.) multiple tissue blots containing approximately 2 μg poly-A mRNA per lane were sequentially hybridized with random primer ^32 P-labeled cDNAs spanning the coding regions of C5a-R and C3a Receptor. C5a-R was cloned via PCR from differentiated U937 RNA. Final washing step was carried out twice in 0.5× SSC, 1% SDS at 65° C. for 20 min.
Capped cRNA transcripts were generated from linearized C3a Receptor and C5a-R plasmid DNA as previously described (Kumar, C. S., et al (1989) J. Biol. Chem. 264, 17939-17946) and suspended in sterile water at a concentration of 0.2 μg/μl. […] Results represent average response determined in three separate experiments.
The chemotactic receptors for C5a and the fMLP-R have previously been functionally expressed in Xenopus laevis oocytes (Kroll, B., et al (1991) FEBS Lett. 291, 208-210; Murphy, P. M. & McDermott, D. (1991) J Biol. Chem. 266, 12560-12567; Murphy, P. M., Gallin, E. K., and Tiffany, H. L. (1990) J Immunol. 145, 2227-2234; Schultz, P., et al (1992) Cellular Signalling 4, 153-161) and, unlike all other GPCRs tested in this system, injection of cRNA for the cloned chemotactic receptors alone is insufficient to stimulate signal transduction in response to ligand binding (Kroll, B., et al (1991) FEBS Lett. 291, 208-210; Murphy, P. M. & McDermott, D. (1991) J Biol. Chem. 266, 12560-12567). Functional expression of both of these chemotactic receptors, as monitored by induction of Ca^2+ mediated chloride currents, requires the co-injection of a complimentary human factor which can be supplied by total RNA from myeloid or liver cells (Kroll, B., et al (1991) FEBS Lett. 291, 208-210; Murphy, P. M. & McDermott, D. (1991) J Biol. Chem. 266, 12560-12567). […]

C3a Receptor = target: T1, C3a Receptor (Homo sapiens, UniProt Q16581); assay: C3a binding to HEK 293 cells stably expressing C3a Receptor mRNA; parameters: cDNA encoding a complete orphan GPCR of 482 amino acids; expressed in transfected cells; conditions: data not shown
T1 sequence (Q16581 1-482 F151C): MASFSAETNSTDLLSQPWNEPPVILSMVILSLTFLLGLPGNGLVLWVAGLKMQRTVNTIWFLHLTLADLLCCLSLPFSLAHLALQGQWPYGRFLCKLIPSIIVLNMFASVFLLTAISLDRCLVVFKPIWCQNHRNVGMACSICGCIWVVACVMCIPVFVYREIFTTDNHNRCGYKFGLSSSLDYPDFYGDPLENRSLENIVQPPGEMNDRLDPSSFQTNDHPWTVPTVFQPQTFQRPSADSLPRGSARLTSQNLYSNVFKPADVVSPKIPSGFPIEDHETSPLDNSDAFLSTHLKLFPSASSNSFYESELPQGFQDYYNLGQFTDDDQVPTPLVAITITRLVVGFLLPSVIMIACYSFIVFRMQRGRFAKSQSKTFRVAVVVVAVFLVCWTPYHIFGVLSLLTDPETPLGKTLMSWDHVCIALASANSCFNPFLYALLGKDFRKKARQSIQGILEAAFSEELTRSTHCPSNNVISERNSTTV
From the text: C3a was radioiodinated and used in whole cell binding assays to further characterize C3a Receptor. […] Curiously, HEK 293 cells stably expressing C3a Receptor mRNA by Northern Blot, neither bound nor responded to C3a (data not shown).

guinea pig ileal tissue = conditions: C3a and C4a; cited from earlier work

## C3a: C3a was purchased from Advanced Research Technologies, San Diego; anaphylatoxin; radioiodinated for binding
C5a-R
  electrophysiological response of oocytes expressing C5a-R: smaller response; also recorded: respond
C5a-R; listed as native ligand
  electrophysiological response of oocytes expressing C5a-R: elicited similar responses
C3a Receptor
  binding of C3a to HEK 293 cells expressing C3a Receptor mRNA: neither bound
Guinea pig ileal tissue
  cross desensitization of guinea pig ileal tissue: cross desensitize

B1: rC5a: Human rC5a was expressed in E. coli and purified to homogeneity (protein, UniProt P01031 678-751, looked up)
C5a anaphylatoxin: TLQKKIEEIAAKYKHSVVKKCCYDGACVNNDETCEQRAARISLGPRCIKAFTECCVVASQLRANISHKDMQLGR
modifications: C5a anaphylatoxin recombinant, E. coli
notes: Human rC5a was expressed in E. coli and purified to homogeneity
C5a-R
  electrophysiological response of oocytes expressing C5a-R: induced rapid activation of chloride currents
C5a-R; listed as C5a
  electrophysiological response of oocytes expressing C5a-R: respond
